Consider 2 compounds from patent US11390625B2, “Aryl-phosphorus-oxygen compound as EGFR kinase inhibitor” (Chia Tai Tianqing Pharmaceutical Group Co., Ltd., priority 2017, dated 2022).

Series [1] can be described thus: Plasma, tumor and lung exposure in mice of the Ba/F3 CDX efficacy experiment. Conditions: mouse, 15.0 mg/kg/day oral; for concentration at 2 h / Lung, 2 h / Tumor, 2 h: 2 h after administration. Format: in vivo. The protocol: On Day 14 after administration to the groups for the efficacy experiment, the plasma was collected from the mice by submandibular blood collection before last administration and 2 hours after last administration, and the plasma samples were collected from the mice at 1 h, 4 h, 8 h and 24 h after administration. About 100 ul of blood was collected each time, placed in an anticoagulation tube, and centrifuged at 8000 rpm for 7 min, to collect plasma, which was stored at −80° C.

Series [2] has as its system Ba/F3 (EGFR Δ19del/T790M/C797S) cells. The series is described as follows: Anti-proliferation experiment on cells (2), Ba/F3 (EGFR Δ19del/T790M/C797S). Conditions: Ba/F3 EGFR, 72 h; Ba/F3 cells, 3 days; read-out: anti-proliferation effect on cells Ba/F3(Δ19del/T790M/C797S) IC50. Format: cell-based. The protocol:
The compounds ware transferred to a 384-well plate, with 125 nL of compound per well. […] After 3 days, 25 μL of detection reagent was added. The plate was incubated at room temperature for 10 minutes and then read with Envision.

The next series concerns PC-9 (Δ19del) xenograft. The series is described as follows: In vivo pharmacodynamics study (2): PC-9 (Δ19del) subcutaneously transplanted tumor in mouse. The note with it: 50 mg/kg (days 0-9); for Tumor volume Day 0 / Tumor volume Day 2 / Tumor volume Day 6 / Tumor volume Day 9 / Tumor volume Day 13 / Tumor volume Day 16 / Tumor volume Day 20 / Tumor volume Day 23: 25 mg/kg (days 10-21) oral once a day. The protocol:
1. Cell culture: lung cancer PC-9 cells were monolayer cultured in vitro, culture conditions: RPMI-1640 (cell culture medium) plus 10% fetal bovine serum, 100 U/mL penicillin and 100 μg/mL streptomycin, culture in a 5% CO2 incubator at 37° C. The cells were conventionally digested with trypsin-EDTA twice a week for passage. When the cell saturation was 80%-90%, and the number reached the requirements, the cells were collected and counted. The density was 5×10^6 cells.
2. Cell inoculation: 0.2 mL (containing 5×10^6 cells) of PC-9 cell suspension (PBS: Matrigel=1:1) was subcutaneously inoculated into the right back of each mouse, with a total of 64 mice. On Day 7 after inoculation, when the average tumor volume measured reached 169 mm^3, the animals were randomly hierarchically grouped based on tumor volume and animal weight, and started to administrate each group. PBS was a phosphate buffer solution, and Matrigel was a matrix.
3. Administration: dosage: Days 0-9: 50 mg/kg; Days 10-21: 25 mg/kg; oral administration; administration frequency: once a day×3 weeks.
Tumor Measurement and Experimental Indicators
Tumor diameter was measured twice a week with a vernier caliper.
The antitumor effect of the compound was evaluated by TGI (%).
The relative tumor volume (RTV) was calculated according to the results of tumor measurement. The calculation formula was RTV=Vt/V0, wherein V0 was the tumor volume measured during group administration (i.e., DO), and Vt was the tumor volume of the corresponding mice measured at a certain time. The data on the same day were taken for TRTV and CRTV.
TGI (%) reflected tumor growth inhibition rate.
After the end of the experiments, the tumor weight would be measured and the TGI (%) was calculated.

The test system of series [3] is pEGFR Ba/F3 (EGFR Δ19del/T790M/C797S) cells. The series is described as follows: Cell phosphorylation inhibition experiment, pEGFR Ba/F3 (EGFR Δ19del/T790M/C797S). Format: cell-based. The note with it: Ba/F3 EGFR; Ba/F3 cells, EGF stimulated; read-out: Effect on cellular EGFR phosphorylation Ba/F3(Δ19del/T790M/C797S) IC50. The protocol: The test compounds and reference compounds were diluted with 100% DMSO to 10 mM or 1 mM, and then a gradient dilution was performed by using Echo, 150 nL per well, with a three-fold concentration gradient and a ten-point dose response curve. The final concentration of the compounds was 100 μM or 10 μM. The suspension cells was centrifuged at 1000 rp for 5 minutes, suspend in Hanks' balanced salt solution, and added to a 384-well plate containing the compounds at 10 L/120K/well (the cell density of 1.2×10^7), followed by centrifugation at 1200 rpm for 30 s and incubation at 37° C. for 30 min. 5 μL of EGF (which has been diluted with 0.1% BSA Hanks' balanced salt solution) was added to each well, in which the final concentration of EGF was 1 μM. The plate was centrifuged at 1200 rpm for 30 s and incubated at 37° C. for 20 min. 5 μL of 4× lysis buffer containing blocking solution was added to each well, and then the plate was centrifuged at 1200 rpm for 30 s, and incubated at 37° C. for 30 min.

The test system of another series is A431 cells (EGFR WT). The series is described as follows: Cell antiproliferation experiment (1), A431 cells, CellTiter Glo. Format: cell-based. The note with it: Homo sapiens, A-431, 72 h, read-out: anti-proliferation effect on cells A431 EGFR WT IC50. The protocol:
1) Cell Culture and Passage
(1) A431 medium: 88% DMEM+10% fetal bovine serum+1% L-glutamine+1% double-antibody
(2) A431 cells were isolated and passaged every 3-4 days, wherein the number of the cells for 3-day passage was 5e6 cells per T75 culture flask, and the number of the cells for 4-day passage was 3e6 cells per T75 culture flask.
2) Day 1: Preparation of Cell Plate
(1) Phosphate buffer, trypsin, and a culture medium were placed in a water bath at 37° C. to preheat.
(2) The original medium was removed from the cell culture flask and washed once with 6 mL of PBS.
(3) 5 mL of phosphate buffer was pipetted into the culture flask to rinse the cells (passage 17), and then the liquid was discarded.
(4) The cell culture flask was added with 3.5 mL of trypsin, and shaken gently, trypsin was removed after fully contact with the cells, and then the culture flask was placed in an incubator containing 5% CO2 at 37° C. for about 1 minute;
(5) The cells were resuspended in 10 mL cell culture medium, and about 0.6 mL of cell suspension was take out for counting (ViCell XR);
(6) The cell suspension was diluted with the medium to the cell density of 5e4 cells per ml, which was required for plating (cell concentration: 2500 cells per well);
(7) 100 μL of phosphate buffer solution was added to each well around the cell plate, while 50 μL of the cell suspension was added to other wells, and the plate was incubated overnight in a incubator containing 5% CO2 at 37° C.
(1) 9 μL of the compound (concentration: 1 mM) was added into a shallow well plate for Echo.
(2) The shallow well plate was centrifuged at 1000 rpm for 10 s and the cell plate was removed from the incubator.
(3) According to the layout of the microplate, the compounds was diluted with a three-fold concentration gradient using Echo, each compound was diluted to 10 concentration gradients and 250 nL of the diluted compounds was respectively added to the cell plate, and then the cell plate was returned to the incubator and further incubated for 3 days.
4) Day 5: Adding CTG and Reading the Plate
(1) After incubation for 72 h, 25 μL of CellTiter Glo was added to each well of the cell plate, followed by shaking the plate for 10 min in the dark.
(2) The plate was read on Envision.
Data analysis: By computer fitting, the corresponding concentration of the compound at 50% inhibition rate was read as the IC50 of the compound for inhibiting cell activity.

In series [1] (BALB/c nude, plasma), `COc1cc(N2CCC(N3CCN(C)CC3)CC2)c(C)cc1Nc1ncc(Br)c(Nc2ccc3nccnc3c2P(C)(C)=O)n1` [Compound 34] had a half-life of 10 h and a concentration at 2 h of 3.55 µM. Also, in series [1], the “Lung, 2 h” value is 32533 nmol/kg and the “Tumor, 2 h” value is reported as 16667 nmol/kg. For the same compound, in series [2], the IC50 amounted to 22 nM. Besides, in the series with PC-9 (Δ19del) xenograft, the “Tumor volume Day 0” value stood at 185 mm^3, the “Tumor volume Day 2” value is 198 mm^3, the “Tumor volume Day 6” value came to 92 mm^3 and the “Tumor volume Day 9” value came to 75 mm^3. Besides, in the series on PC-9 (Δ19del) xenograft, the “Tumor volume Day 13” value amounted to 40 mm^3, the “Tumor volume Day 16” value is 45 mm^3, the “Tumor volume Day 20” value was found to be 76 mm^3 and the “Tumor volume Day 23” value was 111 mm^3. This compound had a TGI with PC-9 (Δ19del) xenograft (day 23, 25 mg/kg (days 10-21) oral) of 100%. In series [3], the IC50 turned out to be 19 nM. Also, the IC50 with A431 cells (EGFR WT) was 154 nM.
On to `CCc1cc(Nc2ncc(Br)c(Nc3ccc4nccnc4c3P(C)(C)=O)n2)c(OC)cc1N1CCC(N2CCN(C)CC2)CC1` [Compound 41], for which, in series [1] (BALB/c nude, plasma), the AUC(0-t) is 122 µM·h, the half-life was 20.5 h and the concentration at 2 h was 6.99 µM. In series [1], the “Lung, 2 h” value amounted to 29567 nmol/kg and the “Tumor, 2 h” value was found to be 18567 nmol/kg. Further, the IC50 in series [2] is 9 nM. Besides, in the series with PC-9 (Δ19del) xenograft, the “Tumor volume Day 0” value was 184 mm^3, the “Tumor volume Day 2” value came out at 198 mm^3, the “Tumor volume Day 6” value turned out to be 54 mm^3 and the “Tumor volume Day 9” value is listed as 44 mm^3. Moreover, in the series on PC-9 (Δ19del) xenograft, the “Tumor volume Day 13” value is 36 mm^3, the “Tumor volume Day 16” value stood at 30 mm^3, the “Tumor volume Day 20” value worked out at 37 mm^3 and the “Tumor volume Day 23” value came to 42 mm^3. The IC50 in series [3] was determined as 25 nM. In addition, in the series with A431 cells (EGFR WT), the IC50 was 245 nM.
